Like-named read-outs stand apart in the source and are kept apart here. One block for each molecule: values may come before it.
How the values were obtained:
[1] = system: Staphylococcus aureus (ATCC 25923); assay: Microbroth single-dose antimicrobial assay, susceptible S. aureus; assay type: cell-based; details: Staphylococcus aureus, ATCC25923; single dose 125 μg/mL; S. aureus ATCC 25923; value (SD)
Method: (§1) Microbroth single dose antimicrobial assays were performed against different pathogens including susceptible Staphylococcus aureus (ATCC 25923), Escherichia coli (ATCC 8739), and Candida albicans (ATCC 90027). Pathogens were treated with 125 μg/mL of tested compounds in duplicate.
(§2) The antimicrobial evaluation of the targeted compounds was carried out against five different pathogens including Staphylococcus aureus (susceptible, ATCC 25923; methicillin-resistant, ATCC BAA-41; multidrug-resistant, ATCC BAA-44), Escherichia coli ATCC 8739, and Candida albicans ATCC 90027. Reference antibiotics and final concentrations used as positive controls in these experiments were kanamycin (susceptible S. aureus, 50 μg), vancomycin (methicillin and multidrug-resistant S. aureus, 25 μg), ampicillin (E. coli, 50 μg), and amphotericin B (C. albicans, 25 μg). The final concentration of the tested compounds was 125 μg/mL for microbroth single-dose assays. Dimethyl sulfoxide was used at a final concentration of 0.1% as negative control. […] American type culture collection (ATCC, Manassas, VA, USA) has provided all microbial strains used in above experiments.
(§3) Antimicrobial Single-dose assay for compounds 7(a-n) against
(§4) S. aureus E. coli C. albicans
(§5) Figure S43: Graph showing results of antimicrobial single-dose microbroth assays of compounds 7a–n, dose of tested compounds = 125 μg/mL, control antibiotic s used: kanamycin = 50 μg/mL (Staphylococcus aureus ATCC 25923), ampicillin = 50 μg/mL (Escherichia coli ATCC 8739), and amphotericin B = 25 μg/mL (Candida albicans ATCC 90027). Dimethylsulfoxide ( DMSO) was used as the negative control at 1.25% […]
(§6) Table S1: Results of single-dose antimicrobial and cytotoxic assays for compounds 7a–n; dosage of tested compounds = 125 μg/mL; antibiotic control dosage (kanamycin = 50 μg/mL (Staphylococcus aureus ATCC 25923), ampicillin = 50 μg/mL (Escherichia coli ATCC 8739), and amphotericin B = 25 μg/mL (Candida albicans ATCC 90027).
(§7) For cytotoxic assays, dosage of tested compounds = 10 μM; dosage of mensacarcin […]
(§8) Percent survival / % Cell viability
(§9) Samples S. aureus E.coli (SD) C. albicans (SD) HCT-116 […]

[2] = system: Escherichia coli (ATCC 8739); assay: Microbroth single-dose antimicrobial assay, E. coli; assay type: cell-based; details: ATCC8739, single dose 125 μg/mL, E. coli ATCC 8739, value (SD)
Method: as §1, §2, §3, §4, §5, §6, §7, §8, §9

[3] = system: Candida albicans (ATCC 90027); assay: Microbroth single-dose antimicrobial assay, C. albicans; assay type: cell-based; details: ATCC90027, single dose 125 μg/mL, C. albicans ATCC 90027, value (SD)
Method: as §1, §2, §3, §4, §5, §6, §7, §8, §9

[4] = Single-dose MTT cell viability assay; assay type: cell-based, human; details: human, HCT-116 cells (ATCC CCL-247), 48 h, 0.1% DMSO control = 100%, value (SD)
Method: (§10) Single-dose MTT assays were performed for compounds 7a–n against the human colon cancer mammalian cell line (HCT-116, ATCC CCL-247) for evaluating their inhibition of mammalian cell metabolism. Solutions of the tested compounds were prepared in DMSO and cancer cells were treated with 10 μM doses of compounds using the apoptosis inducing standard mensacarcin (10 μM) as a positive control.
(§11) Single-dose MTT assays were performed for compounds 7a–n with the human colon cancer mammalian cell line (HCT-116, ATCC CCL-247) for evaluating the compounds’ inhibitory effects on cell viability. Stock solutions of compounds were prepared in DMSO and cancer cells were treated with 10 μM doses of each compound and mensacarcin (10 μM) as a positive control. MTT in 1X PBS was added for a final concentration of 0.5 mg/mL 48 hours post compound addition to each well. Post incubation at 37 °C was carried out for 2 h. After the removal of the growth media, purple formazan metabolic product was dissolved in DMSO. A Biotek Synergy reader (96-well plate) was used to take absorbance of all samples at 550 nm. Cell viability was calculated as the ability of the metabolically active cells to reduce tetrazolium salt MTT [3-(4,5-dimethylthiazolyl-2)-2,5-diphenyltetrazolium bromide]. Control metabolic activity shown by cells treated with 0.1% DMSO was set to 100% cell growth. […]
as §7, §8, §9
(§12) HCT-116 (Human Colorn cancer cell line) Single -dose assay for […]
(§13) Figure S44: Graph showing cell viability of compounds 7a–n against human colon carcinoma cell line (HCT-116, ATCC CCL-247), dose of tested compounds = 10 μM, dose of positive control (mensacarcin) = 10 μM.

[5] = molecular target: human carbonic anhydrase CA I (Homo sapiens, UniProt P00915); assay: hCA inhibition, stopped-flow CO2 hydration method, CA I
Chain of human carbonic anhydrase CA I (P00915 whole entry): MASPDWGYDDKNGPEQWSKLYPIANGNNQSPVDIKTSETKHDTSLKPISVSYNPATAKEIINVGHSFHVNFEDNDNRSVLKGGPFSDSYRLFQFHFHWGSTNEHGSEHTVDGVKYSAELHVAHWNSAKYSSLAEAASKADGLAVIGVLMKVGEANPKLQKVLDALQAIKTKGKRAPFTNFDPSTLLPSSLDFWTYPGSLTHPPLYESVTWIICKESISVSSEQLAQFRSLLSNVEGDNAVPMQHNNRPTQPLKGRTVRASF
Method: (§15) In vitro assessment of all targeted pyrazolobenzothiazine scaffolds for human carbonic anhydrase (hCA) inhibition was performed adopting a stopped-flow CO2 hydration method. The enzyme inhibition assays were carried out for four types of human CA isoforms: CA I, CA II, CA IX, and XII. […] Reason for the selection of these CA isoforms was to develop a comparative relationship for inhibition selectivity between CAs (IX, XII) attributed to tumour/cancer and other CAs (I, II). […] Analyses were carried out in-house using recombinant enzymes as described.

[6] = molecular target: human carbonic anhydrase CA II (Homo sapiens, UniProt P00918); assay: hCA inhibition, stopped-flow CO2 hydration method, CA II; details: mean from three assays, errors ±5–10%
Method: as §15

[7] = molecular target: human carbonic anhydrase CA IX (Homo sapiens, UniProt Q16790); assay: hCA inhibition, stopped-flow CO2 hydration method, CA IX; details: mean from three assays, errors ±5–10%
Method: as §15

[8] = molecular target: human carbonic anhydrase CA XII (Homo sapiens, UniProt O43570); assay: hCA inhibition, stopped-flow CO2 hydration method, CA XII; details: mean from three assays, errors ±5–10%
Chain of human carbonic anhydrase CA XII (O43570 25-354): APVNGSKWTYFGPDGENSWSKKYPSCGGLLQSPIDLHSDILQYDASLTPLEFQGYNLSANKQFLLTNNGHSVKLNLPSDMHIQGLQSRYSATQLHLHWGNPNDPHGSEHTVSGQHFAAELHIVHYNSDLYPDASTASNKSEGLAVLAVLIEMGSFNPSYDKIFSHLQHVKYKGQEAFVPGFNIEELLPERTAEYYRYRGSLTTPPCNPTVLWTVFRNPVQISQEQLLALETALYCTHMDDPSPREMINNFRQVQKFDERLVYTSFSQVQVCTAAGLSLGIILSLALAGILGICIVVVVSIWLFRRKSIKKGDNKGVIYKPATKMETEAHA
Method: as §15

[9] = system: susceptible S. aureus (ATCC 25923); assay: Microbroth dilution assay (MIC90), susceptible S. aureus; assay type: cell-based, Staphylococcus aureus; details: 90% growth inhibition
Method: (§14) Microbroth dilution assays were performed for the determination of MIC (minimum inhibitory concentration, MIC90) values for compounds 7b and 7h against three different strains of Staphylococcus aureus: susceptible (ATCC 25923), methicillin-resistant (ATCC BAA-41), and multidrug-resistant (ATCC BAA-44).
as §2

[10] = system: human colon cancer cell line HCT-116 (ATCC CCL-247); assay: Single-dose MTT cell viability assay; assay type: cell-based; details: 10 μM
Method: as §10, §11, §7, §8, §9, §12, §13

[11] = system: methicillin-resistant S. aureus (ATCC BAA-41); assay: Microbroth dilution assay (MIC90), methicillin-resistant S. aureus; assay type: cell-based, Staphylococcus aureus; details: Staphylococcus aureus, ATCC BAA-41 / MRSA, read-out: MIC90 MRSA
Method: as §14, §2

[12] = system: multidrug-resistant S. aureus (ATCC BAA-44); assay: Microbroth dilution assay (MIC90), multidrug-resistant S. aureus; assay type: cell-based, Staphylococcus aureus; details: Staphylococcus aureus, ATCCBAA44, read-out: MIC90 MDRSA
Method: as §14, §2

[13] = read-out: Ki for targeted CAs, I, mean from three assays, errors ±5–10%
[14] = read-out: Ki for targeted CAs, II
[15] = read-out: Ki for targeted CAs, IX
[16] = read-out: Ki for targeted CAs, XII

Ki [5]: > 100 µM
Ki ([6]; Ki for targeted CAs, II): > 100 µM
Ki ([7]; Ki for targeted CAs, IX): > 100 µM
Ki ([8]; Ki for targeted CAs, XII): > 100 µM
SMILES: COc1ccc(NC(=O)COc2nn(CC(=O)Nc3ccc(OC)cc3)c3c2N(C)S(=O)(=O)c2ccccc2-3)cc1 [Compound 7j]
percent survival of S. aureus at 125 µg/mL [1]: > 100%
percent survival at 125 µg/mL [2]: > 100%
percent survival at 125 µg/mL [3]: 99.5%
viability at 48 h, 10 µM [4]: > 100%

Ki [5, 13]: > 100 µM
Ki [6, 14]: 90.3 µM
Ki [7, 15]: > 100 µM
Ki [8, 16]: 79.1 µM
SMILES: CN1c2c(O)nn(CC(=O)NCc3ccccc3)c2-c2ccccc2S1(=O)=O [Compound 7f]

MIC90 SA [9]: <1 mg/L
SMILES: NC[C@H]1O[C@H](O[C@H]2[C@H](O)[C@@H](O[C@H]3O[C@H](CO)[C@@H](O)[C@H](N)[C@H]3O)[C@H](N)C[C@@H]2N)[C@H](O)[C@@H](O)[C@@H]1O [Kanamycin, kanamycin, reference compound]

Ki [5, 13]: > 100 µM
Ki [6, 14]: > 100 µM
Ki [7, 15]: > 100 µM
Ki [8, 16]: > 100 µM
SMILES: Cc1ccccc1NC(=O)COc1nn(CC(=O)Nc2ccccc2C)c2c1N(C)S(=O)(=O)c1ccccc1-2 [Compound 7l]
effect on HCT-116 cell viability (in words) [10]: inhibited cell viability

Ki [5]: > 100 µM
Ki ([6]; Ki for targeted CAs, II): > 100 µM
Ki ([7]; Ki for targeted CAs, IX): > 100 µM
Ki ([8]; Ki for targeted CAs, XII): > 100 µM
SMILES: Cc1cccc(NC(=O)COc2nn(CC(=O)Nc3cccc(C)c3C)c3c2N(C)S(=O)(=O)c2ccccc2-3)c1C [Compound 7k]
percent survival of S. aureus at 125 µg/mL [1]: > 100%
percent survival at 125 µg/mL [2]: 94.2%
percent survival at 125 µg/mL [3]: > 100%
viability at 48 h, 10 µM [4]: 90.7%

Ki [5, 13]: > 100 µM
Ki [6, 14]: > 100 µM
Ki [7, 15]: > 100 µM
Ki [8, 16]: > 100 µM
SMILES: Cc1ccc(NC(=O)COc2nn(CC(=O)Nc3ccc(C)cc3)c3c2N(C)S(=O)(=O)c2ccccc2-3)cc1 [Compound 7m]

SMILES: CN[C@H](CC(C)C)C(=O)N[C@H]1C(=O)N[C@@H](CC(N)=O)C(=O)N[C@H]2C(=O)N[C@H]3C(=O)N[C@H](C(=O)N[C@H](C(=O)O)c4cc(O)cc(O)c4-c4cc3ccc4O)[C@H](O)c3ccc(c(Cl)c3)Oc3cc2cc(c3O[C@@H]2O[C@H](CO)[C@@H](O)[C@H](O)[C@H]2O[C@H]2C[C@](C)(N)[C@H](O)[C@H](C)O2)Oc2ccc(cc2Cl)[C@H]1O [vancomycin, reference compound]
MIC90 [11]: < 1 mg/L
MIC90 [12]: < 1 mg/L

— publication PMC11833175, “Synthesis, characterization, antimicrobial, cytotoxic and carbonic anhydrase inhibition activities of multifunctional pyrazolo-1,2-benzothiazine acetamides” (Beilstein Journal of Organic Chemistry, 2025)
